Test system: calcifying extracellular vesicles (EVs)
Assay: Aggregation of calcifying extracellular vesicles in a particle counting device
Details: 100 μM NEM, vesicles from smooth muscle cells cultured in calcifying conditions, cell-free, 37° C., FIG. 5
Protocol: Calcification has been previously linked to aggregation of extracellular vesicles. Therefore, vesicles were collected from smooth muscle cells cultured in calcifying conditions and incubated in cell-free conditions at 37° C. within a particle counting device. […] Aggregation of calcifying vesicles was observed by a reduction in total particles counted from 8 h to 20 h of incubation, as shown in FIG. 5. […] Without wishing to be bound by theory, it is hypothesized that this reduction is due to the inhibition of phosphate carriers on the vesicles, which blocks phosphate transport into the vesicles, and in turn preventing mineral formation.

CCN1C(=O)C=CC1=O [NEM, N-ethylmaleimide]
reduction in total particles (vesicle counts) from 8 h to 20 h of incubation: mitigated the reduction in vesicle counts

Reference: patent US10190119B2, “Mitochondrial phosphate carrier targets for treating soft-tissue calcification” (THE BRIGHAM AND WOMEN'S HOSPITAL, INC., priority 2014, dated 2019)
